Assay results published in patent US8940909B2, “Indicator platform” (Biosynth AG, priority 2009, dated 2015).

Experiments:
Type in all cases: cell-based
Salmonella bongori 81 = experiment: IO staining of colonies of beta-D-galactosidase positive/negative bacteria (Table IVb); conditions: Salmonella bongori strain 81, b-gal +; 24 h on Nutrient Agar, 150 mg/l indicator, 100 mg/l IPTG; on C: Color of colonies: key: −: absent; +/−: weak/variable; +: strong; on G: Growth of colonies: key: −: absent; +/−: weak; +: strong; ++: very strong
Escherichia coli = experiment: IN and IO staining of bacterial colonies under anaerobic conditions; conditions: Nutrient Agar plates, anaerobically incubated with E. coli
Method: Nutrient Agar plates containing 150 mg/l of various substrates and 100 mg/l IPTG were inoculated with Escherichia coli. Plates were put in an anaerobic jar (Anaerojar, Oxoid), an AnaeroGen sachet (Oxoid) was added, the jar was closed and incubated for 24 hours at 37° C.
IN staining cannot be used under anaerobic conditions.

Serratia marcescens 40 = experiment: IO staining of colonies of beta-D-galactosidase positive/negative bacteria (Table IVb); conditions: Serratia marcescens strain 40, b-gal +; 24 h on Nutrient Agar, 150 mg/l indicator, 100 mg/l IPTG; on G: Growth of colonies: key: −: absent; +/−: weak; +: strong; ++: very strong
Escherichia coli 61 = experiment: as above; conditions: Escherichia coli strain 61, b-gal +; 24 h on Nutrient Agar, 150 mg/l indicator, 100 mg/l IPTG; on C: Color of colonies: key: −: absent; +/−: weak; +: strong; ++: very strong; on G: Growth of colonies: key: −: absent; +/−: weak; +: strong; ++: very strong
[1] = tested on: Klebsiella pneumoniae 164; experiment: as above; conditions: Klebsiella pneumoniae strain 164, b-gal +; 24 h on Nutrient Agar, 150 mg/l indicator, 100 mg/l IPTG; on C: Color of colonies: key: −: absent; +/−: weak; +: strong; ++: very strong; on G: Growth of colonies: key: −: absent; +/−: weak; +: strong; ++: very strong
[2] = tested on: Streptococcus agalactiae 195; experiment: as above; conditions: Streptococcus agalactiae strain 195, b-gal −; 24 h on Nutrient Agar, 150 mg/l indicator, 100 mg/l IPTG; on C: Color of colonies: key: −: absent; +/−: weak; +: strong; ++: very strong; on F: Fluorescence of colonies: key: −: absent; +/−: weak; +: strong; ++: very strong
Bacillus subtilis 65 = experiment: as above; conditions: Bacillus subtilis strain 65, b-gal −; 24 h on Nutrient Agar, 150 mg/l indicator, 100 mg/l IPTG; on C: Color of colonies: key: −: absent; +/−: weak; +: strong; ++: very strong; on F: Fluorescence of colonies: key: −: absent; +/−: weak; +: strong; ++: very strong
Enterobacter cloacae 245 = experiment: as above; conditions: Enterobacter cloacae strain 245, b-gal +; 24 h on Nutrient Agar, 150 mg/l indicator, 100 mg/l IPTG; on C: Color of colonies: key: −: absent; +/−: weak; +: strong; ++: very strong; on G: Growth of colonies: key: −: absent; +/−: weak; +: strong; ++: very strong
Shigella boydii 135 = experiment: as above; conditions: Shigella boydii strain 135, b-gal −; 24 h on Nutrient Agar, 150 mg/l indicator, 100 mg/l IPTG; further: key: −: absent; +/−: weak; +: strong; ++: very strong
[3] = tested on: Yersinia enterocolitica 175; experiment: as above; conditions: Yersinia enterocolitica strain 175, b-gal +/−; 24 h on Nutrient Agar, 150 mg/l indicator, 100 mg/l IPTG; on G: Growth of colonies: key: −: absent; +/−: weak; +: strong; ++: very strong
Salmonella illa 73 = experiment: as above; conditions: Salmonella illa strain 73, b-gal +; 24 h on Nutrient Agar, 150 mg/l indicator, 100 mg/l IPTG; further: key: −: absent; +/−: weak; +: strong; ++: very strong
[4] = tested on: Shigella dysenteriae Serovar 1 131; experiment: as above; conditions: Shigella dysenteriae Serovar 1 strain 131, b-gal +/−; 24 h on Nutrient Agar, 150 mg/l indicator, 100 mg/l IPTG
Citrobacter freundii 181 = experiment: as above; conditions: Citrobacter freundii strain 181, b-gal +; 24 h on Nutrient Agar, 150 mg/l indicator, 100 mg/l IPTG; on C: Color of colonies: key: −: absent; +/−: weak; +: strong; ++: very strong; on G: Growth of colonies: key: −: absent; +/−: weak; +: strong; ++: very strong
Shigella sonnei 133 = experiment: as above; conditions: Shigella sonnei strain 133, b-gal +/−; 24 h on Nutrient Agar, 150 mg/l indicator, 100 mg/l IPTG; on C: Color of colonies: key: −: absent; +/−: weak; +: strong; ++: very strong; on G: Growth of colonies: key: −: absent; +/−: weak; +: strong; ++: very strong
Staphylococcus aureus 2 = experiment: as above; conditions: Staphylococcus aureus strain 2, b-gal −, 24 h on Nutrient Agar, 150 mg/l indicator, 100 mg/l IPTG; on F: Fluorescence of colonies: key: −: absent; +/−: weak; +: strong; ++: very strong
Aeromonas hydrophila 292 = experiment: as above; conditions: Aeromonas hydrophila strain 292, b-gal +; 24 h on Nutrient Agar, 150 mg/l indicator, 100 mg/l IPTG; on G: Growth of colonies: key: −: absent; +/−: weak; +: strong; ++: very strong
[5] = tested on: Salmonella enteritidis 43; experiment: as above; conditions: Salmonella enteritidis strain 43, b-gal −; 24 h on Nutrient Agar, 150 mg/l indicator, 100 mg/l IPTG; further: key: −: absent; +/−: weak; +: strong; ++: very strong
[6] = tested on: Listeria monocytogenes (4b) 290; experiment: as above; conditions: Listeria monocytogenes (4b) strain 290, b-gal −; 24 h on Nutrient Agar, 150 mg/l indicator, 100 mg/l IPTG; on C: Color of colonies: key: −: absent; +/−: weak; +: strong; ++: very strong; on F: Fluorescence of colonies: key: −: absent; +/−: weak; +: strong; ++: very strong
[7] = tested on: Staphylococcus saprophyticus 273; experiment: as above; conditions: Staphylococcus saprophyticus strain 273, b-gal +; 24 h on Nutrient Agar, 150 mg/l indicator, 100 mg/l IPTG; on G: Growth of colonies: key: −: absent; +/−: weak; +: strong; ++: very strong
Escherichia coli 270 = experiment: as above; conditions: Escherichia coli strain 270, b-gal +; 24 h on Nutrient Agar, 150 mg/l indicator, 100 mg/l IPTG; on C: Color of colonies: key: −: absent; +/−: weak; +: strong; ++: very strong; on G: Growth of colonies: key: −: absent; +/−: weak; +: strong; ++: very strong
[8] = tested on: Escherichia coli (O157:H7) 60; experiment: as above; conditions: Escherichia coli (O157:H7) strain 60, b-gal +; 24 h on Nutrient Agar, 150 mg/l indicator, 100 mg/l IPTG
[9] = tested on: Staphylococcus intermedius 31; experiment: as above; conditions: Staphylococcus intermedius strain 31, b-gal +; 24 h on Nutrient Agar, 150 mg/l indicator, 100 mg/l IPTG
[10] = tested on: Pseudomonas aeruginosa 168; experiment: as above; conditions: Pseudomonas aeruginosa strain 168, b-gal −, 24 h on Nutrient Agar, 150 mg/l indicator, 100 mg/l IPTG; on C: Color of colonies: key: −: absent; +/−: weak; +: strong; ++: very strong; on G: Growth of colonies: key: −: absent; +/−: weak; +: strong; ++: very strong
[11] = tested on: Enterobacter aerogenes 242; experiment: as above; conditions: Enterobacter aerogenes strain 242, b-gal +; 24 h on Nutrient Agar, 150 mg/l indicator, 100 mg/l IPTG; on C: Color of colonies: key: −: absent; +/−: weak; +: strong; ++: very strong; on G: Growth of colonies: key: −: absent; +/−: weak; +: strong; ++: very strong

COc1ccc(C(=O)c2ccccc2-n2cc(O[C@@H]3O[C@H](CO)[C@H](O)[C@H](O)[C@H]3O)c3ccc(Cl)cc32)c(OC)c1 [Indicator I27a, 6-Chloro-1-[2-(2,4-dimethoxybenzoyl)phenyl]-1H-indol-3-yl-beta-D-galactopyranoside]
C: Color of colonies (Salmonella bongori 81): +/−
F: Fluorescence of colonies (Salmonella bongori 81): +/−
G: Growth of colonies (Salmonella bongori 81): +
C: Color of colonies (Escherichia coli): y-o
D: Diffusion around colonies (Escherichia coli): +/−
G: Growth of colonies (Escherichia coli): +
I: Intensity of color (Escherichia coli): +
L: Localization on colonies (Escherichia coli): +
S: Size of colonies (Escherichia coli): 1 mm
C: Color of colonies (Serratia marcescens 40): +
F: Fluorescence of colonies (Serratia marcescens 40): +
G: Growth of colonies (Serratia marcescens 40): +
C: Color of colonies (Escherichia coli 61): ++
F: Fluorescence of colonies (Escherichia coli 61): ++
G: Growth of colonies (Escherichia coli 61): +
C: Color of colonies [1]: +
F: Fluorescence of colonies [1]: +
G: Growth of colonies [1]: +
C: Color of colonies [2]: −
F: Fluorescence of colonies [2]: −
G: Growth of colonies [2]: +/−
C: Color of colonies (Bacillus subtilis 65): −
F: Fluorescence of colonies (Bacillus subtilis 65): −
G: Growth of colonies (Bacillus subtilis 65): +
C: Color of colonies (Enterobacter cloacae 245): ++
F: Fluorescence of colonies (Enterobacter cloacae 245): ++
G: Growth of colonies (Enterobacter cloacae 245): +
C: Color of colonies (Shigella boydii 135): −
F: Fluorescence of colonies (Shigella boydii 135): −
G: Growth of colonies (Shigella boydii 135): +
C: Color of colonies [3]: +/−
F: Fluorescence of colonies [3]: −
G: Growth of colonies [3]: +
C: Color of colonies (Salmonella illa 73): −
F: Fluorescence of colonies (Salmonella illa 73): −
G: Growth of colonies (Salmonella illa 73): +
C: Color of colonies [4]: −
F: Fluorescence of colonies [4]: −
G: Growth of colonies [4]: +
C: Color of colonies (Citrobacter freundii 181): +
F: Fluorescence of colonies (Citrobacter freundii 181): +
G: Growth of colonies (Citrobacter freundii 181): +
C: Color of colonies (Shigella sonnei 133): +
F: Fluorescence of colonies (Shigella sonnei 133): ++
G: Growth of colonies (Shigella sonnei 133): +
F: Fluorescence of colonies (Staphylococcus aureus 2): −
G: Growth of colonies (Staphylococcus aureus 2): +/−
C: Color of colonies (Staphylococcus aureus 2; footnote 2: S. aureus natural color): −
C: Color of colonies (Aeromonas hydrophila 292): +
F: Fluorescence of colonies (Aeromonas hydrophila 292): +
G: Growth of colonies (Aeromonas hydrophila 292): +
C: Color of colonies [5]: −
F: Fluorescence of colonies [5]: −
G: Growth of colonies [5]: +
C: Color of colonies [6]: −
F: Fluorescence of colonies [6]: −
G: Growth of colonies [6]: +/−
C: Color of colonies [7]: +/−
F: Fluorescence of colonies [7]: +/−
G: Growth of colonies [7]: +
C: Color of colonies (Escherichia coli 270): ++
F: Fluorescence of colonies (Escherichia coli 270): ++
G: Growth of colonies (Escherichia coli 270): +
C: Color of colonies [8]: ++
F: Fluorescence of colonies [8]: ++
G: Growth of colonies [8]: +
C: Color of colonies [9]: −
F: Fluorescence of colonies [9]: −
G: Growth of colonies [9]: +/−
C: Color of colonies [10]: −
G: Growth of colonies [10]: +
F: Fluorescence of colonies ([10]; footnote 1: blue autofluorescence): +^1
C: Color of colonies [11]: +
F: Fluorescence of colonies [11]: +
G: Growth of colonies [11]: +
